PubChem BioAssay (NCI)
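How tested: cells in 96-well plates exposed to compound for 48 hours at five concentrations. GI50 marks 50% less growth. TGI marks complete inhibition of growth.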

Assays:
Assay in all cases: inhibition of tumour cell growth, NCI panel, 48 h
MDA-MB-435 = tested on: MDA-MB-435
HCT-15 colon = tested on: HCT-15 colon
K-562 leukemia = tested on: K-562 leukemia
OVCAR-5 ovarian = tested on: OVCAR-5 ovarian
HS 578T breast = tested on: HS 578T breast
DU-145 prostate = tested on: DU-145 prostate
CCRF-CEM leukemia = tested on: CCRF-CEM leukemia
NCI-H460 lung = tested on: NCI-H460 lung
OVCAR-4 ovarian = tested on: OVCAR-4 ovarian
MCF7 breast = tested on: MCF7 breast
HCC-2998 colon = tested on: HCC-2998 colon
LOX IMVI melanoma = tested on: LOX IMVI melanoma
SR leukemia = tested on: SR leukemia
T-47D breast = tested on: T-47D breast
HCT-116 colon = tested on: HCT-116 colon
NCI-H522 lung = tested on: NCI-H522 lung
HL-60(TB) leukemia = tested on: HL-60(TB) leukemia
SF-539 CNS = tested on: SF-539 CNS
NCI/ADR-RES ovarian = tested on: NCI/ADR-RES ovarian
NCI-H23 lung = tested on: NCI-H23 lung
A498 renal = tested on: A498 renal
KM12 colon = tested on: KM12 colon
NCI-H226 lung = tested on: NCI-H226 lung
SK-MEL-28 melanoma = tested on: SK-MEL-28 melanoma
MOLT-4 leukemia = tested on: MOLT-4 leukemia
UO-31 renal = tested on: UO-31 renal
OVCAR-3 ovarian = tested on: OVCAR-3 ovarian
UACC-62 melanoma = tested on: UACC-62 melanoma
OVCAR-8 ovarian = tested on: OVCAR-8 ovarian
TK-10 renal = tested on: TK-10 renal
PC-3 prostate = tested on: PC-3 prostate
A549 NSCLC = tested on: A549 NSCLC
SF-268 CNS = tested on: SF-268 CNS
SNB-19 CNS = tested on: SNB-19 CNS
BT-549 breast = tested on: BT-549 breast
UACC-257 melanoma = tested on: UACC-257 melanoma
SK-MEL-5 melanoma = tested on: SK-MEL-5 melanoma
HT29 colon = tested on: HT29 colon
SK-MEL-2 melanoma = tested on: SK-MEL-2 melanoma
SW-620 colon = tested on: SW-620 colon
COLO 205 colon = tested on: COLO 205 colon
MDA-MB-231 breast = tested on: MDA-MB-231 breast
SN12C renal = tested on: SN12C renal
M14 melanoma = tested on: M14 melanoma
EKVX NSCLC = tested on: EKVX NSCLC
RPMI-8226 leukemia = tested on: RPMI-8226 leukemia
HOP-62 NSCLC = tested on: HOP-62 NSCLC
U251 CNS = tested on: U251 CNS
IGROV1 ovarian = tested on: IGROV1 ovarian
MALME-3M melanoma = tested on: MALME-3M melanoma
SF-295 CNS = tested on: SF-295 CNS
ACHN renal = tested on: ACHN renal
CAKI-1 renal = tested on: CAKI-1 renal

COc1ccc2c3c(Nc4cccc(/C(C)=N\O)c4)[nH]c4ccccc4c-3c(N=O)c2c1
GI50 (MDA-MB-435): 30.9 µM
TGI (MDA-MB-435): > 100 µM
GI50 (HCT-15 colon): 18 µM
TGI (HCT-15 colon): 39.6 µM
GI50 (K-562 leukemia): 31.6 µM
TGI (K-562 leukemia): > 100 µM
GI50 (OVCAR-5 ovarian): 26.5 µM
TGI (OVCAR-5 ovarian): 96.9 µM
GI50 (HS 578T breast): 94.8 µM
TGI (HS 578T breast): > 100 µM
GI50 (DU-145 prostate): 16 µM
TGI (DU-145 prostate): 75.1 µM
GI50 (CCRF-CEM leukemia): 13.6 µM
TGI (CCRF-CEM leukemia): > 100 µM
GI50 (NCI-H460 lung): 33.6 µM
TGI (NCI-H460 lung): > 100 µM
GI50 (OVCAR-4 ovarian): 29 µM
TGI (OVCAR-4 ovarian): > 100 µM
GI50 (MCF7 breast): 73.9 µM
TGI (MCF7 breast): > 100 µM
GI50 (HCC-2998 colon): 10.6 µM
TGI (HCC-2998 colon): 22.4 µM
GI50 (LOX IMVI melanoma): 29.1 µM
TGI (LOX IMVI melanoma): 67.7 µM
GI50 (SR leukemia): 20.4 µM
TGI (SR leukemia): > 100 µM
GI50 (T-47D breast): 16.9 µM
TGI (T-47D breast): > 100 µM
GI50 (HCT-116 colon): 14.6 µM
TGI (HCT-116 colon): 34.2 µM
GI50 (NCI-H522 lung): 46.2 µM
TGI (NCI-H522 lung): > 100 µM
GI50 (HL-60(TB) leukemia): 16.9 µM
TGI (HL-60(TB) leukemia): > 100 µM
GI50 (SF-539 CNS): > 100 µM
TGI (SF-539 CNS): > 100 µM
GI50 (NCI/ADR-RES ovarian): 21.2 µM
TGI (NCI/ADR-RES ovarian): 96.9 µM
GI50 (NCI-H23 lung): 752 nM
TGI (NCI-H23 lung): 27.1 µM
GI50 (A498 renal): 78.1 µM
TGI (A498 renal): > 100 µM
GI50 (KM12 colon): 28.1 µM
TGI (KM12 colon): > 100 µM
GI50 (NCI-H226 lung): 54 µM
TGI (NCI-H226 lung): > 100 µM
GI50 (SK-MEL-28 melanoma): 12.7 µM
TGI (SK-MEL-28 melanoma): 42.7 µM
GI50 (MOLT-4 leukemia): 7 µM
TGI (MOLT-4 leukemia): 62.2 µM
GI50 (UO-31 renal): 52.9 µM
TGI (UO-31 renal): > 100 µM
GI50 (OVCAR-3 ovarian): 33.2 µM
TGI (OVCAR-3 ovarian): 88.2 µM
GI50 (UACC-62 melanoma): 43.9 µM
TGI (UACC-62 melanoma): > 100 µM
GI50 (OVCAR-8 ovarian): 25.8 µM
TGI (OVCAR-8 ovarian): > 100 µM
GI50 (TK-10 renal): 80.3 µM
TGI (TK-10 renal): > 100 µM
GI50 (PC-3 prostate): 20.5 µM
TGI (PC-3 prostate): 65.4 µM
GI50 (A549 NSCLC): 27.6 µM
TGI (A549 NSCLC): > 100 µM
GI50 (SF-268 CNS): > 100 µM
TGI (SF-268 CNS): > 100 µM
GI50 (SNB-19 CNS): 43.7 µM
TGI (SNB-19 CNS): > 100 µM
GI50 (BT-549 breast): 47 µM
TGI (BT-549 breast): > 100 µM
GI50 (UACC-257 melanoma): 41 µM
TGI (UACC-257 melanoma): > 100 µM
GI50 (SK-MEL-5 melanoma): 29.8 µM
TGI (SK-MEL-5 melanoma): > 100 µM
GI50 (HT29 colon): 18.3 µM
TGI (HT29 colon): > 100 µM
GI50 (SK-MEL-2 melanoma): 19.7 µM
TGI (SK-MEL-2 melanoma): 67.7 µM
GI50 (SW-620 colon): 32.1 µM
TGI (SW-620 colon): > 100 µM
GI50 (COLO 205 colon): 21.3 µM
TGI (COLO 205 colon): 57.1 µM
GI50 (MDA-MB-231 breast): 18.9 µM
TGI (MDA-MB-231 breast): 44.5 µM
GI50 (SN12C renal): 30 µM
TGI (SN12C renal): > 100 µM
GI50 (M14 melanoma): 29.9 µM
TGI (M14 melanoma): > 100 µM
GI50 (EKVX NSCLC): 20.5 µM
TGI (EKVX NSCLC): 93.2 µM
GI50 (RPMI-8226 leukemia): 25.5 µM
TGI (RPMI-8226 leukemia): > 100 µM
GI50 (HOP-62 NSCLC): 37.9 µM
TGI (HOP-62 NSCLC): > 100 µM
GI50 (U251 CNS): 33.3 µM
TGI (U251 CNS): > 100 µM
GI50 (IGROV1 ovarian): 26.1 µM
TGI (IGROV1 ovarian): 84.5 µM
GI50 (MALME-3M melanoma): 34.7 µM
TGI (MALME-3M melanoma): 95.5 µM
GI50 (SF-295 CNS): > 100 µM
TGI (SF-295 CNS): > 100 µM
GI50 (ACHN renal): 33.3 µM
TGI (ACHN renal): 91.7 µM
GI50 (CAKI-1 renal): 29.3 µM
TGI (CAKI-1 renal): 54.8 µM
